Laboratory results as given in patent publication US5385910A, “Gem-distributed esters of rapamycin” (American Home Products Corporation, priority 1993, dated 1995).
Several values for one entry are separate records, joined by “and”; a condition that tells them apart may be missing. Identical values can stand only once. Counter-ions that a name gives are not always drawn. Like-named read-outs stand apart in the source and are kept apart here.

How the values were obtained:
[1] = tested on: thymus cells of normal BALB/c mice (PHA and IL-1 induced lymphocyte proliferation); assay: comitogen-induced thymocyte proliferation procedure (LAF); type: cell-based; settings: for IC50: read-out: LAF IC50
Description: (§1) Immunosuppressive activity for representative compounds of this invention was evaluated in an in vitro standard pharmacological test procedure to measure lymphocyte proliferation (LAF) and in three in vivo standard pharmacological test procedures. The pinch skin graft test procedure measures the immunosuppressive activity of the compound tested as well as the ability of the compound tested to inhibit or treat transplant rejection. The adjuvant arthritis standard pharmacological test procedure, which measures the ability of the compound tested to inhibit immune mediated inflammation. The adjuvant arthritis test procedure is a standard pharmacological test procedure for rheumatoid arthritis. Representative compounds of this invention were also evaluated in a heart allograft standard pharmacological test procedure which measures immunosuppressive activity of the compound tested as well as the ability of the compound tested to inhibit or treat transplant rejection. The procedures for these standard pharmacological test procedures are provided below.
The comitogen-induced thymocyte proliferation procedure (LAF) was used as an in vitro measure of the immunosuppressive effects of representative compounds. Briefly, cells from the thymus of normal BALB/c mice are cultured for 72 hours with PHA and IL-1 and pulsed with tritiated thymidine during the last six hours. Cells are cultured with and without various concentrations of rapamycin, cyclosporin A, or test compound. Cells are harvested and incorporated radioactivity is determined. Inhibition of lymphoproliferation is assessed as percent change in counts per minute from non-drug treated controls. For each compound evaluated, rapamycin was also evaluated for the purpose of comparison. An IC50 was obtained for each test compound as well as for rapamycin. […] The results obtained are provided as an IC50.

[2] = tested on: pinch skin graft from male BALB/c donors transplanted to male C3 H(H-2K) recipients; assay: pinch skin graft survival test procedure; type: in vivo, C3 H(H-2K) recipients (mice); settings: for Skin graft survival time (mean survival time ± S.D.): 4 mg/kg, intraperitoneally or orally, untreated grafts rejected within 6-7 days
Description: Representative compounds of this invention were also evaluated in an in vivo test procedure designed to determine the survival time of pinch skin graft from male BALB/c donors transplanted to male C3 H(H-2K) recipients. […] Briefly, a pinch skin graft from the donor was grafted on the dorsum of the recipient as a allograft, and an isograft was used as control in the same region. The recipients were treated with either varying concentrations of test compounds intraperitoneally or orally. Rapamycin was used as a test control. Untreated recipients serve as rejection control. The graft was monitored daily and observations were recorded until the graft became dry and formed a blackened scab. This was considered as the rejection day. The mean graft survival time (number of days±S.D.) of the drug treatment group was compared with the control group. […] Results are expressed as the mean survival time in days. Untreated (control) pinch skin grafts are usually rejected within 6-7 days. Compounds were tested using a dose of 4 mg/kg.

[3] = tested on: Freud's Complete Adjuvant induced arthritis in rats; assay: adjuvant arthritis standard pharmacological test procedure; type: in vivo, male inbread Wistar Lewis rats; settings: 5 mg/kg oral, 7 doses, day 16; more negative = more potent
Description: as §1, with “The procedures for these standard pharmacological test procedures are provided below.” left out
The adjuvant arthritis standard pharmacological test procedure measures the ability of test compounds to prevent immune mediated inflammation and inhibit or treat rheumatoid arthritis. […] Both hind paws are measured on days 16, 23, and 30. The difference in paw volume (mL) from day 16 to day 0 is determined and a percent change from control is obtained. […]

[4] = tested on: heart allograft from BN rat neonate donors in Lewis rats; assay: heterotropic heart allograft standard pharmacological test procedure; type: in vivo; settings: 300 μg/day, i.p.; untreated allografts rejected in about 9-10 days
Description: as §1
The ability of the compounds of this invention to induce immunosuppression and inhibit or treat transplantation rejection was evaluated in a heterotropic heart allograft standard pharmacological test procedure that emulates transplantation rejection that occurs in humans. The following briefly describes the procedure that was used. […]

IgE-like antibodies = settings: cited from earlier work
[5] = tested on: experimental allergic encephalomyelitis; settings: model for multiple sclerosis; cited from earlier work
Candida albicans = settings: in vitro and in vivo, particularly against Candida albicans; cited from earlier work
adjuvant arthritis = settings: model for rheumatoid arthritis; cited from earlier work
[6] = thymocytes cultured 72 hours with PHA and IL-1, tritiated thymidine last six hours, maleate salt
[7] = thymocytes cultured 72 hours with PHA and IL-1, tritiated thymidine last six hours, hydrochloride salt
[8] = thymocytes cultured 72 hours with PHA and IL-1, tritiated thymidine last six hours

## CO[C@H]1C[C@@H]2CC[C@@H](C)[C@@](O)(O2)C(=O)C(=O)N2CCCC[C@H]2C(=O)O[C@H]([C@H](C)C[C@@H]2CCC(=O)[C@H](OC)C2)CC(=O)[C@H](C)/C=C(\C)[C@@H](OC(=O)CN(C)C)[C@@H](OC)C(=O)[C@H](C)C[C@H](C)/C=C/C=C/C=C/1C [Example 3, 42-Oxorapamycin-31-ester with 31-N,N-dimethylglycine maleate salt]
[1]; [6]
  IC50: 14.4 nM
[2]; maleate salt
  Skin graft survival time (mean survival time ± S.D.): 9.2 ± 1.3 days

## CO[C@H]1C[C@@H]2CC[C@@H](C)[C@@](O)(O2)C(=O)C(=O)N2CCCC[C@H]2C(=O)O[C@H]([C@H](C)C[C@@H]2CC[C@@H](OC(=O)C(C)(C)N)[C@H](OC)C2)CC(=O)[C@H](C)/C=C(\C)[C@@H](O)[C@@H](OC)C(=O)[C@H](C)C[C@H](C)/C=C/C=C/C=C/1C [Example 7, Rapamycin 42-ester with 2-amino-2,-methylpropionic acid hydrochloride salt]
[1]; [7]
  IC50: 3.9 nM
[2]; hydrochloride salt
  Skin graft survival time (mean survival time ± S.D.): 10.2 ± 1.2 days

## CO[C@H]1C[C@@H]2CC[C@@H](C)[C@@](O)(O2)C(=O)C(=O)N2CCCC[C@H]2C(=O)O[C@H]([C@H](C)C[C@@H]2CC[C@@H](OC(=O)C3(N)CCCC3)[C@H](OC)C2)CC(=O)[C@H](C)/C=C(\C)[C@@H](O)[C@@H](OC)C(=O)[C@H](C)C[C@H](C)/C=C/C=C/C=C/1C [Example 10, Rapamycin 42-ester with 1-aminocyclopentane carboxylic acid]
[1]; [8]
  IC50: 6 nM
[2]
  Skin graft survival time (mean survival time ± S.D.): 10.5 ± 0.6 days and 10.2 ± 1.0 days

## CO[C@H]1C[C@@H]2CC[C@@H](C)[C@@](O)(O2)C(=O)C(=O)N2CCCC[C@H]2C(=O)O[C@H]([C@H](C)C[C@@H]2CC[C@@H](OC(=O)C(C)(C)N)[C@H](OC)C2)CC(=O)[C@H](C)/C=C(\C)[C@@H](O)[C@@H](OC)C(=O)[C@H](C)C[C@H](C)/C=C/C=C/C=C/1C [Example 6, Rapamycin 42-ester with 2-amino-2-methylpropionic acid maleate salt]
[3]
  Percent change in adjuvant arthritis versus control (uninjected paw): -73%
[1]; [6]
  IC50: 5.3 nM and 8.4 nM
[2]; maleate salt
  Skin graft survival time (mean survival time ± S.D.): 12.0 ± 0.0 days and 11.0 ± 0.9 days
[4]
  Heart allograft survival time (mean): 19.11 days

## CO[C@H]1C[C@@H]2CC[C@@H](C)[C@@](O)(O2)C(=O)C(=O)N2CCCC[C@H]2C(=O)O[C@H]([C@H](C)C[C@@H]2CC[C@@H](O)[C@H](OC)C2)CC(=O)[C@H](C)/C=C(\C)[C@@H](O)[C@@H](OC)C(=O)[C@H](C)C[C@H](C)/C=C/C=C/C=C/1C [rapamycin]
IgE-like antibodies
  formation of IgE-like antibodies (in words): effectively inhibited
[1]; Mus musculus, Lymphocyte
  IC50: 0.4 to 6.8 nM
[5]
  effect in the experimental allergic encephalomyelitis model (in words): effective
Candida albicans
  antifungal activity (in words): antifungal activity
Adjuvant arthritis
  effect in the adjuvant arthritis model (in words): effective

## CO[C@H]1C[C@@H]2CC[C@@H](C)[C@@](O)(O2)C(=O)C(=O)N2CCCC[C@H]2C(=O)O[C@H]([C@H](C)C[C@@H]2CC[C@@H](OC(=O)C3(N)CCCC3)[C@H](OC)C2)CC(=O)[C@H](C)/C=C(\C)[C@@H](O)[C@@H](OC)C(=O)[C@H](C)C[C@H](C)/C=C/C=C/C=C/1C [Example 11, Rapamycin 42-ester with 1-aminocyclopentane carboxylic acid hydrochloride salt]
[1]; [7]
  IC50: 0.63 nM
[2]; hydrochloride salt
  Skin graft survival time (mean survival time ± S.D.): 10.3 ± 0.5 days and 11.5 ± 0.8 days and 12.3 ± 1.0 days

## CO[C@H]1C[C@@H]2CC[C@@H](C)[C@@](O)(O2)C(=O)C(=O)N2CCCC[C@H]2C(=O)O[C@H]([C@H](C)C[C@@H]2CC[C@@H](OC(=O)C3(N)CCCCC3)[C@H](OC)C2)CC(=O)[C@H](C)/C=C(\C)[C@@H](O)[C@@H](OC)C(=O)[C@H](C)C[C@H](C)/C=C/C=C/C=C/1C [Example 14, Rapamycin 42-ester with 1-aminocyclohexane carboxylic acid]
[2]
  Skin graft survival time (mean survival time ± S.D.): 10.6 ± 0.5 days and 12.4 ± 1.1 days

## CO[C@H]1C[C@@H]2CC[C@@H](C)[C@@](O)(O2)C(=O)C(=O)N2CCCC[C@H]2C(=O)O[C@H]([C@H](C)C[C@@H]2CC[C@@H](OC(=O)C3(N)CCCCC3)[C@H](OC)C2)CC(=O)[C@H](C)/C=C(\C)[C@@H](O)[C@@H](OC)C(=O)[C@H](C)C[C@H](C)/C=C/C=C/C=C/1C [Example 15, Rapamycin 42-ester with 1-aminocyclohexane carboxylic acid hydrochloride salt]
[1]; [7]
  IC50: 0.7 nM and 0.4 nM
[2]; hydrochloride salt
  Skin graft survival time (mean survival time ± S.D.): 11.5 ± 1.2 days and 11.2 ± 0.8 days

## CO[C@H]1C[C@@H]2CC[C@@H](C)[C@@](O)(O2)C(=O)C(=O)N2CCCC[C@H]2C(=O)O[C@H]([C@H](C)C[C@@H]2CC[C@@H](OC(=O)C(C)(C)NC(=O)OCC3c4ccccc4-c4ccccc43)[C@H](OC)C2)CC(=O)[C@H](C)/C=C(\C)[C@@H](O)[C@@H](OC)C(=O)[C@H](C)C[C@H](C)/C=C/C=C/C=C/1C [Example 4, Rapamycin 42-ester with 2-(9H-fluoren-9-ylmethoxycarbonylamino)-2-methylpropionic acid]
[1]
  immunosuppressive activity in the LAF procedure (in words): shown to have immunosuppressive activity
[2]
  Skin graft survival time (mean survival time ± S.D.): 11.7 ± 0.8 days and 14.2 ± 0.6 days
[2]; mouse, in vivo
  immunosuppressive activity in the skin graft procedure (in words): shown to have immunosuppressive activity

## CO[C@H]1C[C@@H]2CC[C@@H](C)[C@@](O)(O2)C(=O)C(=O)N2CCCC[C@H]2C(=O)O[C@H]([C@H](C)C[C@@H]2CCC(=O)[C@H](OC)C2)CC(=O)[C@H](C)/C=C(\C)[C@@H](OC(=O)CN(C)C)[C@@H](OC)C(=O)[C@H](C)C[C@H](C)/C=C/C=C/C=C/1C [Example 1, 42-Oxorapamycin-31-ester with 31-N,N-dimethylglycine]
[1]; [8]
  IC50: 9.7 nM
[2]
  Skin graft survival time (mean survival time ± S.D.): 9.6 ± 0.9 days

## CO[C@H]1C[C@@H]2CC[C@@H](C)[C@@](O)(O2)C(=O)C(=O)N2CCCC[C@H]2C(=O)O[C@H]([C@H](C)C[C@@H]2CC[C@@H](OC(=O)C(C)(C)N)[C@H](OC)C2)CC(=O)[C@H](C)/C=C(\C)[C@@H](O)[C@@H](OC)C(=O)[C@H](C)C[C@H](C)/C=C/C=C/C=C/1C [Example 5, Rapamycin 42-ester with 2-amino-2-methylpropionic acid]
[2]
  Skin graft survival time (mean survival time ± S.D.): 12.3 ± 1.0 days and 11.8 ± 1.3 days

## CO[C@H]1C[C@@H]2CC[C@@H](C)[C@@](O)(O2)C(=O)C(=O)N2CCCC[C@H]2C(=O)O[C@H]([C@H](C)C[C@@H]2CCC(=O)[C@H](OC)C2)CC(=O)[C@H](C)/C=C(\C)[C@@H](OC(=O)CN(C)C)[C@@H](OC)C(=O)[C@H](C)C[C@H](C)/C=C/C=C/C=C/1C [Example 2, 42-Oxorapamycin-31-ester with 31-N,N-dimethylglycine hydrochloride salt]
[1]; [7]
  IC50: 23.4 nM
[2]; hydrochloride salt
  Skin graft survival time (mean survival time ± S.D.): 10.0 ± 0.0 days and 10.3 ± 0.5 days
